# “Also recorded” adds a separate entry of the source. Like-named read-outs stand apart in the source and are kept apart here.
# Legend:
# [1] = test system: clinical samples of KP (VA_1 and VA_2); assay: MorphoAST MIC prediction with Random Forest regressor (concentration differential) from single cell imaging; type: cell-based, Klebsiella pneumoniae; conditions: for MIC: Klebsiella pneumoniae
# Protocol: (§1) We developed a non-limiting example machine learning workflow for rapid AST in a sub-doubling time of the bacteria. The MorphoAST workflow started with imaging of individual bacteria under various antimicrobial concentrations (FIG. 1A). Cells were grown to log phase and treated with varying concentrations of meropenem. Cells without any antimicrobials were imaged in the same manner as controls for the experiment. Live bacteria were mounted on an agarose pad to minimize cell movement due to cell motility and Brownian motion. Time-lapse images were taken every 5 minutes. Images were aligned to match the location of individual cells at each frame and then subject to MicrobeJ analysis for extracting morphological features. A total of 21 parameters (Table 2) describing the cellular dimension and orientation were generated. The data were analyzed either fitting with an exponential function to extract the feature changing rates (FIG. 1B) or normalized against the untreated control to extract the feature differentials (FIG. 1C). The data were applied to train and validate machine learning classifiers to predict the antimicrobial response (FIG. 1D) and regressors to predict the MIC of the bacterial strain against the antimicrobial (FIG. 1E).
# We further evaluated the use of the concentration differential data for MIC prediction. A Random Forest regressor was trained from a total of 39,135 cells across the concentrations. […] The Random Forest regressor predicted the MIC in the 5-fold cross-validated training dataset with an RMSE of 0.8, MAE of 0.2, and an R^2 of 0.93. The performance of the model was assessed against 5 unseen KP strains, which comprised 6,067 cells. The experimental MIC and predicted MIC of the 5 unseen strains based on the Random Forest regressor are compared in FIG. 9B. […] The predicted and experimentally reported MIC labels were also compared. Based on the predicted MIC for each strain, the model correctly predicted 100% (2/2) of the susceptible and intermediate (1/1) bacteria in as few as 30 minutes. The performance of the model increased with the antimicrobial exposure time and achieved 100% CA with 0% ME and 0% VME in 50 minutes. We then tested the model performance in predicting the MIC for individual cells within each population of the unseen strains tested (FIG. 9C). While there is heterogeneity in calls for individual cells from a single population, ˜79.9% of cells from 3/5 strains tested (KP 003, KP_139, and KP_U3) had predicted MICs within one-two fold dilution from the experimental MIC after 20 minutes of antimicrobial exposure. After 50 minutes of exposure, ˜85.1% of all cells from 5/5 tested strains had predicted MICs within one-two fold dilution from experimental MIC.
# (§2) In addition to validation against unseen strains, the model was tested against imaging data from two clinical samples of KP obtained from patients visiting the VA (Palo Alto) with urinary tract infections (FIG. 9D-E). The experimental MICs for these clinical samples (VA_1 and VA_2) was 0.5 μg/mL, i.e., susceptible. […] When the incubation time was increased to 50 minutes, both strains were predicted to have a mode MIC of 1 μg/mL which accurately classifies both clinical isolates as susceptible with an MIC within one-two fold dilution from the experimental MIC resulting.
# Klebsiella pneumoniae = assay: Time-lapse single cell imaging of K. pneumoniae treated with meropenem (cell division, morphology); type: cell-based; conditions: for bulging or protrusion around the center of the cell: 5 μg/mL meropenem, early time points
# Protocol: Klebsiella pneumoniae isolates (listed in Table 1 below) from the CDC & FDA Antimicrobial Resistance (AR) bank and American Type Culture Collective (ATCC) were grown in Mueller Hinton Broth (MHB) at 37° C. overnight. The next day, cells were sub-cultured in fresh MHB media for three hours (growth phase) to a density equivalent to OD600=0.5. Bacteria cells (10 μL) were treated with 10 μL meropenem at varying final concentrations of 0, 0.05, 0.5, 5, and 50 μg/mL to ascertain the physiological responses of cells. A subset of these isolates was treated with finer range of antimicrobial concentrations (0.02, 0.04, 0.016, 0.032, 0.064, 0.125, 0.5, 1, 2 μg/mL) to train the algorithm for quantitative prediction of MIC. The MICs of the isolates were obtained from the CDC and independently confirmed using the broth microdilution method according to the CDC guideline.
# Bacteria cells and meropenem in liquid media are briefly vortexed prior to mounting on 1% (v/v) UltraPure agarose pad (10×20 mm, Invitrogen) on a microslide covered with a glass coverslip (#1.5, 22×30 mm). Bacteria imaging was performed using a Nikon Ti2-E inverted microscope equipped with a DS-Qi2 CMOS camera and an Okolab stage-top temperature control chamber (37° C., 5% CO2). Images were acquired using a Nikon CFI Plan Apochromat 1 DM 100× oil objective lens and an external Phase Contrast (Ph3) module. Each isolate was observed over a period of 75 minutes (15-90 minutes after mixing with the antimicrobial).
# Time-series images were stacked and corrected for shifts in the time series using the Template Matching and Slice Alignment ImageJ plugin. Each individual stack was then analyzed using the MicrobeJ plugin for ImageJ. The plugin, designed for the detection and analysis of bacterial cells, uses computer vision algorithms to automatically identify a cell and determine a suite of morphological features, such as its area, length, circularity, and perimeter (see Table 2 below). The tracking data were summarized as a table and exported as a comma-separated values (.csv) file for further analysis.
# as §1
# [2] = test system: clinical samples of KP (VA_1 and VA_2); assay: Experimental MIC of clinical samples of KP from patients with urinary tract infections; type: cell-based, Klebsiella pneumoniae
# Protocol: as §2
# [3] = test system: Klebsiella pneumoniae isolates; conditions: cited from earlier work
smiles,measurement,setting,value
"C[C@@H](O)[C@H]1C(=O)N2C(C(=O)O)=C(S[C@@H]3CN[C@H](C(=O)N(C)C)C3)[C@H](C)[C@H]12 [Meropenem, meropenem]",MIC,"[1]; 20 min, clinical sample VA_1, within 20 minutes of meropenem treatment, read-out: predicted MIC",8 µg/mL
same,MIC,"[1]; 20 min, clinical sample VA_2, within 20 minutes of meropenem treatment, read-out: predicted MIC",7 µg/mL
same,MIC,"[1]; 50 min, clinical sample VA_1, 50 minutes incubation, read-out: predicted mode MIC",1 µg/mL
same,MIC,"[1]; 50 min, clinical sample VA_2, 50 minutes incubation, read-out: predicted mode MIC",1 µg/mL
same,predicted susceptibility category,"[1]; clinical sample VA_1, 50 minutes incubation",susceptible
same,predicted susceptibility category,"[1]; clinical sample VA_1, within 20 minutes of meropenem treatment",resistant
same,predicted susceptibility category,"[1]; clinical sample VA_2, 50 minutes incubation",susceptible
same,predicted susceptibility category,"[1]; clinical sample VA_2, within 20 minutes of meropenem treatment",resistant
same,Bulging of the cells,"Klebsiella pneumoniae; K. pneumoniae KP0142, 50 μg/ml meropenem versus 0 μg/ml",observed only in the meropenem case; also recorded: only observed in the meropenem case
same,cell division,"Klebsiella pneumoniae; K. pneumoniae KP0142, 50 μg/ml meropenem, time-lapse imaging",completely inhibited
same,bulging or protrusion around the center of the cell,Klebsiella pneumoniae; KP0016 (susceptible),noticeable ‘bulging’ or protrusion around the center of the cell
same,bulging or protrusion around the center of the cell,Klebsiella pneumoniae; KP0142 (intermediate),noticeable ‘bulging’ or protrusion around the center of the cell
same,bulging or protrusion around the center of the cell,Klebsiella pneumoniae; KP0143 (resistant),not observed
same,MIC,"[2]; Klebsiella pneumoniae, clinical sample VA_1",0.5 µg/mL
same,susceptibility category from experimental MIC,[2]; clinical sample VA_1,susceptible
same,experimental MIC,[2]; clinical sample VA_2,0.5 µg/mL
same,susceptibility category from experimental MIC,[2]; clinical sample VA_2,susceptible
same,MIC of the strain,[3]; K. pneumoniae KP0142,2 µg/mL
same,Meropenem MIC,[3]; KP strain AR Bank# 0010,1 µg/mL
same,Meropenem MIC,[3]; KP strain AR Bank# 0016,< 0.5 µg/mL
same,Meropenem Susc.,[3]; KP strain AR Bank# 0016,Susceptible
same,Meropenem MIC,[3]; KP strain AR Bank# 0028,< 0.5 µg/mL
same,Meropenem MIC,[3]; KP strain AR Bank# 0120,> 8 µg/mL
same,Meropenem MIC,[3]; KP strain AR Bank# 0140,2 µg/mL
same,Meropenem MIC,[3]; KP strain AR Bank# 0142,2 µg/mL
same,Meropenem Susc.,[3]; KP strain AR Bank# 0142,Intermediate
same,Meropenem MIC,[3]; KP strain AR Bank# 0143,> 8 µg/mL
same,Meropenem Susc.,[3]; KP strain AR Bank# 0143,Resistant
same,Meropenem MIC,[3]; KP strain AR Bank# 0147,0.5 µg/mL
same,Meropenem MIC,[3]; KP strain AR Bank# 0153,> 8 µg/mL
same,Meropenem MIC,[3]; KP strain AR Bank# 0160,> 8 µg/mL
same,Meropenem MIC,[3]; KP strain ATCC 700603,≤ 0.25 µg/mL
same,Meropenem MIC,[3]; KP strain ATCC BAA-1705,> 8 µg/mL

# — patent publication US20260085340A1, “METHOD FOR SINGLE CELL ANTIMICROBIAL SUSCEPTIBILITY TESTING IN A SUB-DOUBLING TIME” (The Penn State Research Foundation, priority 2022, published 2026)
